From PubChem BioAssay (NCI)
Values joined by “and” are separate entries in the source; they are usually repeats but may differ in a detail not shown here. Equal values may be shown once.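 Cultured in 96-well plates, cells were exposed to test compound for 48 hours across five concentrations. GI50: concentration for 50% inhibition of growth. TGI: concentration producing complete growth inhibition.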

Experiments:
Assay in all cases: NCI-60 cell line screen, 48 h
[1] = tested on: MCF7 breast
[2] = tested on: OVCAR-4 ovarian
[3] = tested on: BT-549 breast
[4] = tested on: A549 NSCLC
[5] = tested on: MDA-MB-435
[6] = tested on: HCC-2998 colon
[7] = tested on: ACHN renal
[8] = tested on: SNB-19 CNS
[9] = tested on: M14 melanoma
[10] = tested on: RPMI-8226 leukemia
[11] = tested on: HOP-92 NSCLC
[12] = tested on: OVCAR-8 ovarian
[13] = tested on: SF-295 CNS
[14] = tested on: UO-31 renal
[15] = tested on: CAKI-1 renal
[16] = tested on: SK-MEL-2 melanoma
[17] = tested on: EKVX NSCLC
[18] = tested on: SF-539 CNS
[19] = tested on: HL-60(TB) leukemia
[20] = tested on: 786-0 renal
[21] = tested on: MOLT-4 leukemia
[22] = tested on: PC-3 prostate
[23] = tested on: T-47D breast
[24] = tested on: K-562 leukemia
[25] = tested on: HCT-15 colon
[26] = tested on: SK-MEL-28 melanoma
[27] = tested on: SK-MEL-5 melanoma
[28] = tested on: NCI-H23 lung
[29] = tested on: NCI/ADR-RES ovarian
[30] = tested on: OVCAR-3 ovarian
[31] = tested on: UACC-257 melanoma
[32] = tested on: LOX IMVI melanoma
[33] = tested on: SF-268 CNS
[34] = tested on: HOP-62 NSCLC
[35] = tested on: NCI-H460 lung
[36] = tested on: SNB-75 CNS
[37] = tested on: OVCAR-5 ovarian
[38] = tested on: UACC-62 melanoma
[39] = tested on: NCI-H522 lung
[40] = tested on: SK-OV-3 ovarian
[41] = tested on: SN12C renal
[42] = tested on: NCI-H226 lung
[43] = tested on: U251 CNS
[44] = tested on: MDA-MB-231 breast
[45] = tested on: CCRF-CEM leukemia
[46] = tested on: HT29 colon
[47] = tested on: MALME-3M melanoma
[48] = tested on: HCT-116 colon
[49] = tested on: DU-145 prostate
[50] = tested on: TK-10 renal
[51] = tested on: SW-620 colon
[52] = tested on: IGROV1 ovarian
[53] = tested on: A498 renal

Work on N#Cc1nc2c(S(=O)(=O)c3ccc(Cl)cc3)c(N)n(Nc3cccc(Cl)c3)c2nc1C#N yielded a GI50 [1] of 15 nM, a GI50 [2] of 16.6 nM and a GI50 [3] of 131 nM. For the same compound, the TGI [4] was over 100000 nM, the GI50 [5] was 49.7 nM and the TGI [5] was 379 nM and 67 nM. For the same compound, the GI50 [6] was 16.1 nM, the TGI [6] was over 100000 nM and the GI50 [7] was 27.7 nM. The GI50 [8] was 137 nM, the GI50 [9] was 67.1 nM and the TGI [9] was 304 nM. The GI50 [10] was 2.51 nM, the TGI [10] was 19 nM and 66.8 nM and the TGI [11] was 99 nM. The TGI [12] was over 100000 nM, the GI50 [13] was 42.7 nM and the TGI [13] was 276 nM. For the same compound, the GI50 [14] was 333 nM, the TGI [14] was over 100000 nM and the GI50 [15] was 31.1 nM. For the same compound, the GI50 [16] was 105 nM and 12.6 nM, the TGI [16] was 387 nM and 85.7 nM and the GI50 [17] was 69.3 nM and 26.6 nM. The GI50 [18] was 30.7 nM, the TGI [18] was 179 nM and the GI50 [19] was 5.2 nM. It also gave a TGI [19] of 87.1 nM, a GI50 [20] of 38.9 nM and a GI50 [21] of 16.2 nM. The TGI [21] was 103 nM, the GI50 [22] was 2.79 nM and the GI50 [23] was 25.8 nM. The GI50 [24] was 30.9 nM, the GI50 [25] was 98.2 nM and the TGI [25] was over 100000 nM. For the same compound, the GI50 [26] was 3.49 nM, the TGI [26] was 11 nM and the GI50 [27] was 115 nM. The TGI [27] was 657 nM, the GI50 [28] was 32.4 nM and the GI50 [29] was 50.5 nM. It also gave a TGI [29] of over 100000 nM, a TGI [30] of 13.2 nM and a TGI [31] of 37200 nM. It also gave a GI50 [32] of 30.1 nM, a TGI [33] of over 100000 nM and a GI50 [34] of 109 nM. For the same compound, the GI50 [35] was 70.4 nM, the TGI [35] was over 100000 nM and the GI50 [36] was 11.5 nM. The TGI [36] was 59 nM, the GI50 [37] was 21.9 nM and 22.4 nM and the TGI [37] was 106 nM and 175 nM. For the same compound, the GI50 [38] was 115 nM, the TGI [38] was 336 nM and the GI50 [39] was 110 nM. The TGI [39] was 449 nM, the GI50 [40] was 85.8 nM and the GI50 [41] was 33 nM. The GI50 [42] was 106 nM, the TGI [42] was 322 nM and 302 nM and the GI50 [43] was 29.4 nM. The GI50 [44] was 17.8 nM, the TGI [44] was 86.9 nM and the GI50 [45] was 10.1 nM. For the same compound, the GI50 [46] was 29.5 nM, the GI50 [47] was 53.2 nM and the TGI [47] was 330 nM. The GI50 [48] was 15 nM, the TGI [49] was over 100000 nM and the GI50 [50] was 20.7 nM. It also gave a GI50 [51] of 14 nM, a TGI [51] of 73.3 nM and a GI50 [52] of 38.5 nM. It also gave a TGI [52] of 179 nM.
O=C(NCc1cccc(CNC(=O)Nc2nc3ccccc3[nH]2)c1)Nc1nc2ccccc2[nH]1 showed a GI50 [7] of 4160 nM, a TGI [7] of over 100000 nM and a GI50 [11] of 1250 nM. The TGI [11] was 3260 nM, the GI50 [15] was over 100000 nM and the TGI [15] was over 100000 nM. It also gave a GI50 [16] of 2360 nM, a TGI [16] of 7100 nM and a GI50 [19] of over 100000 nM. For the same compound, the TGI [19] was over 100000 nM, the GI50 [23] was 3330 nM and the TGI [23] was over 100000 nM. It also gave a GI50 [25] of over 100000 nM, a TGI [25] of over 100000 nM and a GI50 [29] of over 100000 nM. The TGI [29] was over 100000 nM, the GI50 [53] was 2070 nM and the TGI [53] was 5110 nM. For the same compound, the GI50 [34] was 1950 nM, the TGI [34] was 4920 nM and the GI50 [36] was 1580 nM. For the same compound, the TGI [36] was 4180 nM.
C#CC[C@@H]1C[C@]2(C)[C@H]3CC[C@@H]4[C@H]5C(C(=C)C)CC[C@]5(C(=O)NCCN(CCN)CCN)CC[C@@]4(C)[C@]3(C)CC[C@H]2C(C)(C)[C@H]1OC(C)=O (some centres not stated) showed a GI50 [2] of 2350 nM, a TGI [2] of 5320 nM and a GI50 [42] of 2060 nM. The TGI [42] was 4690 nM.
